Measured values: paper PMC3479139, “Diverse Small Molecule Inhibitors of Human Apurinic/Apyrimidinic Endonuclease APE1 Identified from a Screen of a Large Public Collection” (PLoS ONE, 2012)

Key:
E. coli Endo IV = target: T1, E. coli Endo IV (Escherichia coli, UniProt P0A6C1); experiment: E. coli Endo IV profiling counterscreen; format: biochemical; conditions: read-out: EndoIV IC50;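 also: selectivity counterscreen of candidate APE1 inhibitors against the bacterial endonuclease Endo IV, run in the same assay format as the primary APE1 high-throughput screen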
T1 construct: made in house
Source text: (§1) In order to screen out nonselective compounds, such as non-specific DNA binders and inhibitors of related enzymes, we used a miniaturized ThO DNA displacement assay and a counterscreen against the bacterial endonuclease E. coli Endo IV, respectively, following the previously published protocols [21].
To probe the selectivity of the candidate APE1 inhibitors, we tested them against E. coli EndoIV [36], employing the same assay as used in the HTS.

APE1 [1] = target: T2, APE1 (Homo sapiens, UniProt P27695); experiment: Gel-based APE1 incision assay with fluorescence (TAMRA) detection; format: biochemical
T2 construct: made in house
T2 sequence (P27695 whole entry): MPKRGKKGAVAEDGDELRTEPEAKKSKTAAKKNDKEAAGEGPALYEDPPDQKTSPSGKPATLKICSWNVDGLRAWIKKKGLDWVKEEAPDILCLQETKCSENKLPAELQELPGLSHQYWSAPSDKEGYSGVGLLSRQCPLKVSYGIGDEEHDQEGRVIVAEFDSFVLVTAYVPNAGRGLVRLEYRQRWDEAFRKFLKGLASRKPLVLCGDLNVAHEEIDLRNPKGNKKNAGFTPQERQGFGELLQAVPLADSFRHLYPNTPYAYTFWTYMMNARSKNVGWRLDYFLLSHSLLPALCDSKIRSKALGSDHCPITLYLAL

[2] = target: double-stranded 17-mer DNA fragment; experiment: ThO (Thiazole Orange) DNA displacement assay; format: binding; conditions: read-out: ThO-DNA binding IC50;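 also: miniaturized displacement of the intercalating dye from unlabeled duplex DNA, used to flag nonspecific DNA binders, chiefly intercalators, groove binders may be missed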
Source text: The double-stranded 17-mer DNA fragment used in the ThO DNA binding assay was of the same sequence as the fluorogenic HTS substrate but carried no dye labels.
as §1
To detect screening hits that inhibit APE1 activity through non-specific DNA interactions, we employed a previously established miniaturized ThO dye displacement assay [21]. […] We note that the ThO assay reports primarily on DNA binders acting through intercalation, while potentially missing other types of DNA binders, such as those acting through the minor groove.

APE1 [3] = target: T2, APE1; experiment: Fluorogenic kinetic qHTS APE1 incision assay (primary screen and retest of cherrypicked samples); format: biochemical;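 also: purified APE1 cleaving a fluorophore/dark-quencher labelled 17-mer duplex DNA bearing a tetrahydrofuran AP site, fluorescence rise followed kinetically over the first 2 min, inhibition normalized to controls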
APE1 [4] = target: T2, APE1; experiment: Fluorescence polarization (FP) displacement assay of APE1 binding to AP-DNA probe; conditions: read-out: FP IC50;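 also: TAMRA 5′-labeled duplex DNA with THF abasic site (5 nM) and APE1 (20 nM), Mg2+-free buffer, 15 min at room temperature, inhibition seen as lowered polarization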
APE1 [5] = target: T2, APE1; experiment: Gel-based radiotracer (32P) APE1 incision assay; format: biochemical; design: concentration or dose not given beside the values; conditions: percent incision shown; entries 1-112;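 also: APE1 incision reactions ran 5 min at 37 °C, with cleaved product and intact substrate resolved electrophoretically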
[6] = initial quantitative high-throughput screen, read-out: APE1 qHTS IC50
[7] = retest of cherrypicked sample, read-out: APE1 Retest IC50
[8] = estimated IC50, fluorophore detection, entries 113-223, read-out: F-PAGE Assay IC50

| SMILES | IC50 (E. coli Endo IV) | IC50 (APE1 [1]; entries 113-223: fluorophore detection, estimated IC50, read-out: Gel-based electrophoretic separation assay with fluorophore detection, estimated IC50 (column headed Radiotracer Assay (%Activity))) | IC50 [2] | IC50 (APE1 [3]; [6]) | IC50 (APE1 [3]; [7]) | IC50 (APE1 [4]) | IC50 (APE1 [1]; [8]) | Radiotracer Assay (%Activity) (APE1 [5]) |
| --- | --- | --- | --- | --- | --- | --- | --- | --- |
| CCOC(=O)c1ccc2[nH]c(-c3ccc(S(=O)(=O)F)cc3)cc(=O)c2c1 [MLS000737558] | 36.3 µM | 28.2 µM | > 57 µM | 18.9 µM | 14.5 µM | 20.4 µM | – | – |
| Nc1nc(=S)c2ncn(C3OC(CO)C(O)C3O)c2[nH]1 (stereo not drawn) [MLS000738229] | > 57 µM | – | 28.9 µM | 13.4 µM | 3.6 µM | > 57 µM | 2.5 µM | – |
| NS(=O)(=O)c1ccc(N=Nc2ccc(=O)[nH]c2O)cc1 [MLS000738241] | > 57 µM | – | > 57 µM | 7.5 µM | 12.9 µM | > 57 µM | 3.5 µM | – |
| O=c1ccc2[n+]([O-])c3ccc([O-])cc3oc-2c1.[Na+] [MLS000778776] | 4.5 µM | – | > 57 µM | 25.1 µM | 12.4 µM | 0.02 µM | – | 5% |
| Cc1cc(/C=C2\C(=O)NC(=O)N(Cc3ccco3)C2=O)c(C)n1-c1ccc(C(=O)O)cc1 [MLS000807042] | > 57 µM | – | > 57 µM | 1.1 µM | 14.1 µM | > 57 µM | – | 33% |
| Cc1ccc(S(=O)(=O)Nc2csc(C)c2C(=O)O)cc1 [MLS000850015] | > 57 µM | – | > 57 µM | 11.2 µM | 15.8 µM | > 57 µM | – | 49% |
| O=c1cc(-c2ccc(O)cc2)oc2c(C3OCC(O)C(O)C3O)c(O)c(C3OC(CO)C(O)C(O)C3O)c(O)c12 (stereo not drawn) [MLS000876755] | > 57 µM | – | > 57 µM | 19.9 µM | 4.5 µM | > 57 µM | – | 31% |
| CC1OC(OCC2OC(Oc3c(-c4ccc(O)cc4)oc4cc(O)cc(O)c4c3=O)C(O)C(O)C2O)C(O)C(O)C1O (stereo not drawn) [MLS000876823] | > 57 µM | – | > 57 µM | 3.5 µM | 3.1 µM | > 57 µM | – | 30% |
| Cc1c(O)cc2c(c1O)C(=O)CC(c1ccc(O)cc1)O2 (stereo not drawn) [MLS000876957] | > 57 µM | – | > 57 µM | 1.6 µM | 4.5 µM | > 57 µM | – | 44% |
| CCC(C)C(=O)OCC1(c2ccc(C)cc2OC(=O)C(C)C)CO1 (stereo not drawn) [MLS000876981] | > 57 µM | – | > 57 µM | 8.9 µM | 11.2 µM | > 57 µM | – | 36% |
| COc1ccc(C(CC(=O)N2CCCCC2)c2c(OC)cc(OC)c3c(-c4ccccc4)cc(=O)oc23)cc1 (stereo not drawn) [MLS000879461] | > 57 µM | – | > 57 µM | 25.1 µM | 7.9 µM | 14.1 µM | – | 24% |
| CCN(CC)C(=O)CC(c1cc(OC)c(OC)c(OC)c1)c1c(OC)cc(OC)c2c(-c3ccccc3)cc(=O)oc12 (stereo not drawn) [MLS000879482] | > 57 µM | – | > 57 µM | 22.4 µM | 5 µM | 12.6 µM | – | 37% |
| Cc1ccc(C)c(S(=O)(=O)Nc2ccc3oc(C)c(C(=O)O)c3c2)c1 [MLS000948181] | > 57 µM | – | > 57 µM | 13.4 µM | 20.4 µM | > 57 µM | 2.8 µM | – |
| O=S(=O)(Nc1ccccc1)c1cccc2nsnc12 [MLS000999698] | > 57 µM | – | > 57 µM | 7.5 µM | 22.9 µM | 40.8 µM | 10 µM | – |
| O=C(NC1CC1)c1cc(-c2ccco2)nc2ccccc12 [MLS001005620] | > 57 µM | – | > 57 µM | 11.2 µM | 4.4 µM | > 57 µM | – | 17% |
| CC(=O)c1ccccc1NS(=O)(=O)c1cccc2nsnc12 [MLS001008046] | > 57 µM | – | > 57 µM | 5.3 µM | 8.1 µM | 28.9 µM | 5.6 µM | – |
| COC(=O)c1ccn(CC(=O)NC2CCCCC2)n1 [MLS001030262] | > 57 µM | – | > 57 µM | 29.9 µM | 12.9 µM | > 57 µM | 5.6 µM | – |
